IC50 data for 1 compound are collected here from patent publication US7473790B2 (Pfizer Inc., priority 2003, dated 2009).

Molecules are shown by their SMILES.

This test addresses T1, HCV polymerase (Hepatitis C virus genotype 1b, UniProt P26663).
T1 construct: 2.5 pmoles (0.15 μg) HCV polymerase protein in a final volume of 75 μL
The test can be described thus: HCV polymerase primer/template-directed transcription assay (32P-GTP incorporation, filter binding). It is filed as biochemical. To be noted: recombinant HCV polymerase; 30 minutes at 30° C.; concentration giving 50% inhibition of polymerase-directed transcription; read-out: IC50. The procedure, abridged: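 Recombinant genotype 1b polymerase (30 nM) extended biotin-dG12 primer on poly(rC)300 template with 1 μM GTP plus α-32P-GTP, pH 7.2, 10 mM MgCl2, 30 min at 30° C, 1% DMSO final. Products captured on DE filters and counted. IC50 fitted from triplicate cpm, with a tight-binding correction applied below 200 nM.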

T1 sequence (P26663 2420-3010): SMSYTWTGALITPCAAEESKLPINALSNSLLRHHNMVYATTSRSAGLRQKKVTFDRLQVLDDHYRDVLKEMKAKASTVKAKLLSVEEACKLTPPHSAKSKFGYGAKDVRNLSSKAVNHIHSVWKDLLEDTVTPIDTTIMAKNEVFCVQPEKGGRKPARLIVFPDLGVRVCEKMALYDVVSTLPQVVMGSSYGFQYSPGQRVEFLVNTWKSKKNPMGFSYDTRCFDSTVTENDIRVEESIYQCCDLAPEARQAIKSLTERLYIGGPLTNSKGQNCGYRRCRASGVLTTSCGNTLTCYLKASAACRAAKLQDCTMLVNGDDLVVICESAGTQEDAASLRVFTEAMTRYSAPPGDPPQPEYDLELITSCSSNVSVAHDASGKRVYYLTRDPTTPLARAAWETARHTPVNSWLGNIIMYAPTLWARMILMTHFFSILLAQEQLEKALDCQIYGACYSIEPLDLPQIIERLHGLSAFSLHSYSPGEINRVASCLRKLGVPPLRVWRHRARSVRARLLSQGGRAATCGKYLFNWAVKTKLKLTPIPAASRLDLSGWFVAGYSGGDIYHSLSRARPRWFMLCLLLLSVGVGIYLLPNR

As a reminder, the IC50 is the concentration at which inhibition is half-maximal. With `CC(C)(C#N)c1ccc(CCC2(C3CCCC3)CC(O)=C(Cc3nc4ncc(Cl)cn4n3)C(=O)O2)cc1F` (single isomer, unassigned; (-)) [A(249), (−)-2-(4-{2-[5-(6-Chloro-[1,2,4]triazolo[1,5-a]pyrimidin-2-ylmethyl)-2-cyclopentyl-4,6-dioxo-tetrahydro-pyran-2-yl]-ethyl}-2-fluoro-phenyl)-2-methyl-propionitrile], the IC50 was determined as 19 nM.
